# Source: paper PMC5716993, “The interdomain flexible linker of the polypeptide GalNAc transferases dictates their long-range glycosylation preferences” (Nature Communications, 2017)
# Biological target: T1, GalNAc-T4 (Homo sapiens, UniProt Q8N4A0)
# T1 construct: amino acid residues 36–578 of the human GalNAc-T4; histidine tag (C); made in house; host or cells: Pichia pastoris SMD1168 (pPICZαA, secreted)
# Test: STD-NMR binding / epitope mapping
# Conditions: normalized to the highest STD response; 298 K, pH 7.4, UDP, MnCl2; in words
# Description: All NMR experiments were recorded on a Bruker Avance 600 MHz spectrometer equipped with a triple channel cryoprobe head. The^1H NMR resonances of the peptides 1–3 were completely assigned through standard 2D-TOCSY (30 and 80 ms mixing time) and 2D-NOESY experiments (400 ms mixing time). Solution conditions used for the NMR characterization studies were 1–3 mM (glyco)peptide, 25 mM perdeuterated tris-d11 in 90:10 H2O/D2O, 7.5 mM NaCl, and 1 mM DTT, uncorrected pH 7.4. The assignments were accomplished either at 278 or 298 K. The resonance of 2,2,3,3-tetradeutero-3-trimethylsilylpropionic acid (TSP) was used as a chemical shift reference in the^1H NMR experiments (δ TSP = 0 ppm). Peak lists for the 2D-TOCSY and 2D-NOESY spectra were generated by interactive peak picking using the computer aided resonance assignment (CARA) software.
# Samples for STD experiments were prepared in perdeuterated 25 mM TRIS-d11 in deuterated water, 7.5 mM NaCl, and 1 mM DTT, uncorrected pH 7.4. STD-NMR experiments were performed at 298 K in the presence of 75 μM UDP, 75 μM MnCl2 with ~880 μM peptide (or GalNAc-O-Me) and 13.5 μM GalNAc-T4 giving a molar ratio of 65:1 peptide:GalNAc-T4.
# The STD-NMR spectra were acquired with 1920 transients in a matrix with 64 k data points in t2 in a spectral window of 12335.53 Hz centered at 2819.65 Hz. An excitation sculpting module with gradients was employed to suppress the water proton signals. Selective saturation of the protein resonances (on resonance spectrum) was performed by irradiating at −1 ppm using a series of Eburp2.1000-shaped 90° pulses (50 ms, 1 ms delay between pulses) for a total saturation time of 2.0 s. For the reference spectrum (off resonance), the samples were irradiated at 100 ppm. Proper control experiments were performed with the ligands in the presence and absence of the protein in order to optimize the frequency for protein saturation (−1 ppm) and to ensure that the ligand signals were not affected. […] This nonspecific saturation was taken into account, by subtraction, when quantifying the STD-NMR data in the presence of the transferase. As well, a blank STD experiment with only the protein was also recorded. The substraction of this protein STD spectrum allowed eliminating the signal background of the protein. In all cases, to accomplish the STD-NMR-derived epitope mapping of each ligand, the STD-NMR total intensities were normalized with respect to the highest STD-NMR response. For Fig. 2b and Supplementary Fig. 1, the STD response of each amino acid corresponds to the average of STD percentages of all amino acid proton resonances that were measured with sufficient accuracy. The signal of the anomeric proton of as well as, the Hα protons of the Ala amino acids of glycopeptides could not be analyzed in the STD-NMR spectra due to their close proximity to the HDO resonance. Proton resonances, from Gly and Pro, appear in the same chemical shift region of the spectrum and were not discriminated.
# T1 sequence (Q8N4A0 36-578): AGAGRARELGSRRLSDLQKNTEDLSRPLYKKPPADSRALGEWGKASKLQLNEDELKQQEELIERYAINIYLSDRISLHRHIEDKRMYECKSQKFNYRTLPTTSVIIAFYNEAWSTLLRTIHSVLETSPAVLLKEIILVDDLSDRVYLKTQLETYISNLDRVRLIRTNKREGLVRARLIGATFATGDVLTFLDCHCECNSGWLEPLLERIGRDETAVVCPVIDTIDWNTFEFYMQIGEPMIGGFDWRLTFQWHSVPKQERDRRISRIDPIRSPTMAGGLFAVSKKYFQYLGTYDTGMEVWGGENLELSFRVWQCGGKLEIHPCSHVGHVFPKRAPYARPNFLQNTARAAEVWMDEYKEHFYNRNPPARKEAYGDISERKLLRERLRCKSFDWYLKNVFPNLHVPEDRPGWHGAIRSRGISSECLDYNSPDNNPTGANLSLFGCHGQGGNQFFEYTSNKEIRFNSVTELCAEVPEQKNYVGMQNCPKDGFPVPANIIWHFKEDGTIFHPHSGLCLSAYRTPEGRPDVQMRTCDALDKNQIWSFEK
structure (smiles),measurement,value
"CO[C@H]1O[C@H](CO)[C@H](O)[C@H](O)[C@H]1NC(C)=O [α-methyl-GalNAc, reference compound]",STD-NMR-derived epitope mapping of GalNAc moiety,"the highest STD response corresponded to the H2 proton of the GalNAc moiety followed by a modest STD of protons H4, H3, and N-acetyl group"
